This assay has as its target T1, Human CXCR2 Receptor (Homo sapiens, UniProt P25025).
T1 construct: purchased Biosignal Packard Inc; host or cells: Chinese hamster ovary cells (CHO-K1), membranes
T1 sequence (P25025 1-360): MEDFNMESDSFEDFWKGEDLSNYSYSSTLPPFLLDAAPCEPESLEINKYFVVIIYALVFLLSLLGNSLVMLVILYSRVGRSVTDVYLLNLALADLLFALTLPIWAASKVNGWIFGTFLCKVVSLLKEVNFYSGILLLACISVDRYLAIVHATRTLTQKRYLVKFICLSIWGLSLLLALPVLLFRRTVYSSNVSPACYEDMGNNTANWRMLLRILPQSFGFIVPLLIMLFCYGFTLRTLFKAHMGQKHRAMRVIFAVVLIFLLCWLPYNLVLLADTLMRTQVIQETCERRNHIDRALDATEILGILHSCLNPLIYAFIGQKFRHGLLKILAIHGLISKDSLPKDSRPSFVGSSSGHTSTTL
In words: [35S]-GTPγS binding assay for human CXCR2 receptor using SPA technology. The assay is classed as biochemical. Conditions: CHO-K1 membranes expressing human CXCR2; 100 nM IL-8 stimulated; read-out: IC50 values in the [35S]-GPTγS binding assay. The text has this:
[^35S]-GTPγS Binding Assay for Human CXCR2 Receptor Using SPA Technology
[^35S]-GTPγS (with specific activity 1082 Ci/mmol) and wheat germ agglutinin poly vinyl toluene scintillation proximity beads are purchased from Amersham Pharmacia Biotech. The Chinese hamster ovary cell (CHO-K1) membranes expressing human CXCR2 receptors are purchased from Biosignal Packard Inc. All other chemicals are of analytical grade. White non-binding surface 96 well Optiplate™ microplates are obtained from Packard. Recombinant human IL-8 is synthesised, cloned and expressed in Escherichia coli as described previously (Lindley I, et al., Proc. Natl. Acad. Sci., 1988, 85(23):9199). The assay is performed in duplicate in 96 well Optiplate™ microplate in a final volume of 250 μl per well. Compounds are diluted in DMSO (0.5% final concentration) and incubated in 20 mM HEPES buffer pH 7.4 containing 10 mM MgCl2, 100 mM NaCl, 1 mM EDTA plus 100 nM IL-8, 50 μM GDP and […] [^35S]GTPγS per well. SPA beads (1 mg/well final concentration) were pre-mixed with the membranes (10 μg/well final concentration) in assay buffer: 20 mM HEPES buffer pH 7.4 containing 10 mM MgCl2, 100 mM NaCl, 1 mM EDTA. […] The plate is centrifuged and read on Packard TopCoun™ scintillation counter, program [^35S dpm] for 1 min/well. Data are expressed as the % response to 100 nM IL-8 minus basal.

This note sets out measurements from US8183281B2, “CXC-chemokine receptor ligands” (Novartis AG, priority 2007, dated 2012).

Take `O=c1c(Nc2ccc(Cl)c(S(=O)(=O)N3CCOCC3)c2O)c(NC2CCSC2)c1=O` (centres unmarked) [Example 7, 3-[4-Chloro-2-hydroxy-3-(morpholine-4-sulfonyl)-phenylamino]-4-(tetra-hydro-thiophen-3-ylamino)-cyclobut-3-ene-1,2-dione]: the IC50 was 0.022 µM.
As to `CC[C@@H](Nc1c(Nc2ccc(Cl)c(S(=O)(=O)N3CCCC3)c2O)c(=O)c1=O)[C@H]1CC[C@@H](C)O1` [Example 17, 3-[4-Chloro-2-hydroxy-3-(pyrrolidine-1-sulfonyl)-phenylamino]-4-[(R)-1-((2R,5R)-5-methyl-tetrahydrofuran-2-yl)-propylamino]-cyclobut-3-ene-1,2-dione], the IC50 came out at 0.058 µM.

A word on the IC50: it is the midpoint of a concentration-inhibition curve.
